Data taken from ChEMBL document CHEMBL1201862, “PubChem BioAssay data set” (2004).
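Five compound concentrations were applied to cells in 96-well plates for 48 hours; endpoints were derived by simple linear interpolation of the resulting dose-response curve. The concentration for 50% growth inhibition is given as GI50.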 Activity calls are given as the source filed them. No stated cut-off is given here; in the data, active = GI50 up to about 1.1 µM and inactive = higher. Where a SMILES comes first, the peptide text is derived from it. [ ]: non-standard residue; d: D form. Phe(4-Cl) = N[CH](Cc1ccc(Cl)cc1)C(=O)O

What was measured:
Experiment in all cases: NCI tumour cell line growth inhibition, 48 h
CAKI-1 = system: CAKI-1
HL-60 = system: HL-60
SF-539 = system: SF-539
UACC-62 = system: UACC-62
HCC 2998 = system: HCC 2998
HT-29 = system: HT-29
UO-31 = system: UO-31
SK-MEL-2 = system: SK-MEL-2
OVCAR-3 = system: OVCAR-3
M14 = system: M14
UACC-257 = system: UACC-257
A549 = system: A549
OVCAR-4 = system: OVCAR-4
NCI-H460 = system: NCI-H460
Malme-3M = system: Malme-3M
SF-268 = system: SF-268
SK-MEL-5 = system: SK-MEL-5

Measured: GI50

CC(O)C(NC(=O)C(Cc1ccccc1)NC(=O)C(NC(=O)C(CCCCN)NC(=O)C(Cc1c[nH]c2ccccc12)NC(=O)C(Cc1ccc(O)cc1)NC(=O)C(Cc1ccc(Cl)cc1)NC(=O)C(N)Cc1ccccc1)C(C)O)C(N)=O (stereo not drawn) (H-F[Phe(4-Cl)]YWKTFT-NH2; configuration not given here)
inactive: CAKI-1 21.2 µM | HL-60 15.3 µM | SF-539 20 µM | UACC-62 19.1 µM | HCC 2998 25.4 µM | HT-29 23.4 µM | UO-31 19 µM | SK-MEL-2 19.9 µM | OVCAR-3 17.4 µM | M14 22.7 µM | UACC-257 > 10 µM | A549 16.2 µM | OVCAR-4 23.9 µM | NCI-H460 13.7 µM

CC1=NN(C(=O)c2ccc(Cl)cc2)C(=O)/C1=C/c1ccc(O)cc1
inactive: CAKI-1 > 100 µM | HL-60 > 100 µM | SF-539 > 100 µM | Malme-3M > 100 µM | UACC-62 > 100 µM | HCC 2998 > 100 µM | HT-29 > 100 µM | UO-31 > 100 µM | SF-268 > 100 µM | SK-MEL-2 > 100 µM | OVCAR-3 > 100 µM | M14 > 100 µM | UACC-257 > 100 µM | A549 > 100 µM | OVCAR-4 > 100 µM | SK-MEL-5 > 100 µM | NCI-H460 > 100 µM

COC(=O)C1(F)C(=O)NC(=O)NC1OC (stereo not drawn)
inactive: CAKI-1 83.9 µM | HL-60 3.09 µM | SF-539 2.58 µM | Malme-3M 34.9 µM | UACC-62 18.6 µM | HT-29 22.2 µM | UO-31 70.8 µM | SF-268 45.4 µM | SK-MEL-2 > 100 µM | OVCAR-3 94.2 µM | UACC-257 > 100 µM | A549 5.92 µM | OVCAR-4 > 100 µM | SK-MEL-5 9.84 µM | NCI-H460 3.52 µM

COc1ccc2c(c1)[n+]([O-])c(C(=O)CC(=O)C(=O)Nc1cccc(Cl)c1C)c(C)[n+]2[O-]
inactive: CAKI-1 > 100 µM | HL-60 44.5 µM | SF-539 > 100 µM | Malme-3M > 100 µM | UACC-62 > 100 µM | HCC 2998 > 100 µM | HT-29 83 µM | UO-31 > 100 µM | SF-268 > 100 µM | SK-MEL-2 > 100 µM | OVCAR-3 27.3 µM | M14 > 100 µM | UACC-257 > 100 µM | A549 > 100 µM | OVCAR-4 > 100 µM | SK-MEL-5 > 100 µM | NCI-H460 > 100 µM

CCOP(=O)(OCC)/C(C#N)=C/c1ccco1
inactive: CAKI-1 > 100 µM | HL-60 > 100 µM | SF-539 > 100 µM | Malme-3M > 100 µM | UACC-62 > 100 µM | HCC 2998 > 100 µM | HT-29 > 100 µM | UO-31 > 100 µM | SF-268 > 100 µM | SK-MEL-2 > 100 µM | M14 > 100 µM | UACC-257 > 100 µM | A549 > 100 µM | OVCAR-4 > 100 µM | SK-MEL-5 > 100 µM | NCI-H460 > 100 µM

COC(=O)CCC(NC(=S)N/N=C/c1ccco1)C(=O)OC (stereo not drawn)
inactive: HL-60 > 100 µM | SF-539 > 100 µM | Malme-3M > 100 µM | UACC-62 > 100 µM | HCC 2998 > 100 µM | HT-29 > 100 µM | UO-31 > 100 µM | SF-268 > 100 µM | SK-MEL-2 > 100 µM | OVCAR-3 > 100 µM | M14 > 100 µM | UACC-257 > 100 µM | A549 > 100 µM | OVCAR-4 > 100 µM | SK-MEL-5 > 100 µM | NCI-H460 > 100 µM

COc1ccc2c(c1)NC1(O)c3ccccc3C(=O)C21O (stereo not drawn)
inactive: CAKI-1 > 100 µM | HL-60 > 100 µM | SF-539 > 100 µM | Malme-3M > 100 µM | UACC-62 > 100 µM | HT-29 > 100 µM | UO-31 > 100 µM | SF-268 > 100 µM | OVCAR-3 > 100 µM | M14 > 100 µM | UACC-257 > 100 µM | A549 > 100 µM | SK-MEL-5 > 100 µM | NCI-H460 > 100 µM

CS(=O)(=O)NNS(=O)(=O)c1ccc(Cl)cc1
inactive: CAKI-1 36.7 µM | HL-60 > 100 µM | SF-539 > 100 µM | Malme-3M > 100 µM | UACC-62 > 100 µM | HCC 2998 > 100 µM | HT-29 > 100 µM | UO-31 35.6 µM | SK-MEL-2 > 100 µM | OVCAR-3 > 100 µM | M14 > 100 µM | UACC-257 > 100 µM | A549 > 100 µM | OVCAR-4 > 100 µM | SK-MEL-5 > 100 µM | NCI-H460 > 100 µM

CCOC(=O)c1c(-c2ccccc2)oc(-c2ccccc2)c1C(=O)OCC
inactive: HL-60 33.6 µM | SF-539 > 100 µM | Malme-3M > 100 µM | UACC-62 > 100 µM | HCC 2998 67.1 µM | HT-29 22.6 µM | UO-31 > 100 µM | SF-268 > 100 µM | SK-MEL-2 94.2 µM | OVCAR-3 > 100 µM | M14 > 100 µM | UACC-257 77.6 µM | A549 > 100 µM | SK-MEL-5 56.5 µM

Cc1ccc2c(c1)C(c1cccc3ccccc13)OC2=O (stereo not drawn)
inactive: CAKI-1 > 100 µM | HL-60 > 100 µM | Malme-3M 51.6 µM | UACC-62 > 100 µM | HCC 2998 > 100 µM | HT-29 > 100 µM | UO-31 > 100 µM | SF-268 > 100 µM | SK-MEL-2 > 100 µM | OVCAR-3 > 100 µM | M14 41 µM | UACC-257 53.8 µM | A549 89.3 µM | OVCAR-4 35 µM | SK-MEL-5 31.4 µM | NCI-H460 > 100 µM

COC(=N)c1csc(C2OC(CO)C(O)C2O)n1 (stereo not drawn)
inactive: CAKI-1 > 100 µM | HL-60 38.5 µM | SF-539 > 100 µM | Malme-3M > 100 µM | UACC-62 > 100 µM | HCC 2998 > 100 µM | HT-29 > 100 µM | UO-31 50.7 µM | SF-268 > 100 µM | SK-MEL-2 > 100 µM | OVCAR-3 > 100 µM | M14 > 100 µM | UACC-257 > 100 µM | A549 > 100 µM | OVCAR-4 > 100 µM | NCI-H460 > 100 µM

COC1=CC2(C=CC1=O)c1cc(OC)c(OC)cc1CCN2C(=O)c1ccccc1 (stereo not drawn)
inactive: CAKI-1 > 100 µM | SF-539 > 100 µM | Malme-3M > 100 µM | UACC-62 > 100 µM | HCC 2998 > 100 µM | HT-29 > 100 µM | UO-31 97.9 µM | OVCAR-3 > 100 µM | M14 > 100 µM | UACC-257 > 100 µM | A549 > 100 µM | SK-MEL-5 > 100 µM

CCCCCCCC1(c2ccc(N)cc2)CCC(=O)NC1=O (stereo not drawn)
inactive: CAKI-1 27.4 µM | HL-60 17 µM | Malme-3M 28.1 µM | UACC-62 26.7 µM | HCC 2998 29.8 µM | UO-31 20.5 µM | SF-268 34.4 µM | SK-MEL-2 35.8 µM | OVCAR-3 22.6 µM | M14 32.4 µM | UACC-257 32.9 µM | A549 31.6 µM | OVCAR-4 28.1 µM | SK-MEL-5 20.7 µM | NCI-H460 26.7 µM
